# According to US4939124A, “Treatment and diagnosis of dementia” (Laboratorios Serono S.A., priority 1988, dated 1990):
# Experiments:
# [1] = tested on: Male Wistar rats; test: Locomotor activity in open field paradigm (OUCEM-86), i.c.v. injection; format: in vivo
# Source text: To clarify whether SS and GRF display at the central level the same antagonistic effect that they have at the pituitary level, the effects of these neuropeptides on several behavioral parameters have been studied using the OUCEM-86^TM (Osaka University Computerized Electronic Maze). The system is integrated by the following components: a Programmable Electronic Platform (PEP) (620×620 mm) equipped with 48 photo beam sensors (OPX-T30); a Programming Panel (PP) (Model BECM-0064) for paradigm stimulation; a Shock Generator Scrambler (SGS) (Model BSG-1065) to apply continuous or discontinuous electric current to the PEP; a Control Station (CS) (BEC 16-Bio Computer Control Station BCS-1105; Bio Medica, Ltd., Osaka) which processes inputs/outputs as an interface device to automatically computerize behavioral parameters; and a Computer System (NEC PC-9801 VM2) with 1 megabyte Random Access Memory (RAM) for data processing and experimental setting.
# Male Wistar rats (175-200 g) (N =5-8 rats/group) received intracerebroventricular (i.c.v.) injections of GRF1-44 and SS-14 over a range of 0.1 to 10 mcg. Then the rats were studied in the OUCEM under two different paradigms (e.g., open field and maze paradigms).
# The animals were placed in the PEP for 30-minute periods and locomotor activity (LA) was automatically recorded in an open field paradigm. Total LA is represented as total inputs (I/O) including movements in four-footed position (4F) and in two-footed position (2F), grooming, rearing and jumping activity, while linear (horizontal) movements (4F) are represented as pulses per minute (pm) or cm^2 /min
# [2] = tested on: growth hormone (GH); test: GRF test: GRF-induced plasma GH response (radioimmunoassay); format: in vivo, human; conditions: for GRF-induced GH response: GRF(1-44)NH2 100 mcg i.v. bolus
# Source text: The subjects were divided into three groups:
# (a) controls (N =9): 5 females and 4 males (age =70.10±2.76 years; range =66-75);
# (b) inpatients with early onset senile dementia of the Alzheimer type (EOSDAT) (N =10): 5 females and 5 males (age 65.00±3.31 years; range =57-69); and
# (c) inpatients with late onset senile dementia of the Alzheimer type (LOSDAT) (N =10): 5 females and 5 males (age =75.70±3.77 years; range =70-82).
# All the SDAT patients met the DSM-III criteria for primary degenerative dementia and rigorous diagnostic criteria for SDAT. […] In LOSDAT, the onset of the disease occurred after the age of 60. The degree of severity of the dementia was assessed with Hasegawa's Dementia Rating Scale (DRS) (Hasegawa K., Inoue K. "An investigation of dementia rating scale for the elderly." Seishinigaku 16:965-969, 1974), Folstein's Mini-Mental State (MMS) Test (Folstein M. F., Folstein S., McHugh P. "Mini-mental state: a practical method for grading the cognitive state of patients for the clinician." J. Psychiat. Res. 12:189-198, 1975) and a modified model of the Brief Cognitive Rating Scale (BCRS) and Functional Assessment Stages (FAST) of Reisberg (Reisberg B., Ferris S. H., De Leon M. J. "Senile dementia of the Alzheimer type: Diagnosis and differential diagnostic features with special reference to functional assessment staging." in: Traber J., Gispen W. H. (Ed). Senile dementia of the Alzheimer type. pp 18-37, Springer-Verlag, Berlin, 1985). Concomitant pathology other than SDAT was discarded under a careful screening of the subjects with CT Scan, EEG, ECG and complementary laboratory data. Current diagnosis or history of SDM-III major affective disorder or schizophrenia as well as history of endocrine disease were criteria for exclusion. All of the control subjects were free of psychiatric and endocrine illness. All subjects included had been drug-free for a minimum of 7 days before testing.
# A 21-gauge indwelling venous needle with an attached three-way stopcook was inserted into the antecubital vein. Baseline blood samples for GH determination were collected immediately before testing. GRF(1-44)NH2was then injected as an intravenous bolus (100 mcg), and blood samples were obtained at 15, 30, 45, 60, 90 and 120 minutes after injection for determination of GH concentrations in plasma. The plasma GH levels were measured by radioimmunoassay using a commercial GH-RIA-Kit (Dainabot Co. Ltd. Tokyo). The intra- and inter-assay coefficients of variation were 6.9% and 10.6%, respectively.
# The results were analyzed statistically by the Student's test, analysis of variance (ANOVA) and the Mann-Whitney test using a NEC PC-9801VM2 computer.
# [3] = tested on: Male Wistar rats; test: Locomotor activity and learning in maze paradigm (escape from 1.5 mA shock area), i.c.v. injection; format: in vivo; conditions: GRF1-44 5 mcg i.c.v., 30 minutes; control 17.12±5.42 pm
substance,measurement,setting,value
growth hormone releasing factor [GRF],"locomotor activity (LA), open field","[1]; 1 mcg i.c.v. (SS-14 / GRF1-44), 30-minute period, control 31.16±6.90 pm",47.60±5.35 pm
same,"locomotor activity (LA), open field","[1]; GRF1-44 1 mcg i.c.v., control 1122±248 cm^2 /min",1713.6±69.5 cm^2 /min
same,"qualitative behavioral change, open field",[1]; GRF 1 mcg i.c.v.,"hyperkinetic syndrome characterized by compulsive, uncontrolled movements"
same,plasma GH,"[2]; CONTROL (females), 0 min (basal, before GRF(1-44)NH2 100 mcg i.v.)",1.03 ± 0.94 ng/mL
same,plasma GH,"[2]; CONTROL (females), 15 min after GRF(1-44)NH2 100 mcg i.v.",3.09 ± 1.58 ng/mL
same,plasma GH,"[2]; CONTROL (females), 30 min after GRF(1-44)NH2 100 mcg i.v.",3.68 ± 2.09 ng/mL
same,plasma GH,"[2]; CONTROL (females), 45 min after GRF(1-44)NH2 100 mcg i.v.",4.28 ± 3.38 ng/mL
same,plasma GH,"[2]; CONTROL (females), 60 min after GRF(1-44)NH2 100 mcg i.v.",2.97 ± 1.96 ng/mL
same,plasma GH,"[2]; CONTROL (females), 90 min after GRF(1-44)NH2 100 mcg i.v.",2.04 ± 1.38 ng/mL
same,plasma GH,"[2]; CONTROL (females), 120 min after GRF(1-44)NH2 100 mcg i.v.",1.10 ± 0.95 ng/mL
same,plasma GH,"[2]; CONTROL (males), 0 min (basal, before GRF(1-44)NH2 100 mcg i.v.)",1.07 ± 0.92 ng/mL
same,plasma GH,"[2]; CONTROL (males), 15 min after GRF(1-44)NH2 100 mcg i.v.",2.21 ± 1.87 ng/mL
same,plasma GH,"[2]; CONTROL (males), 30 min after GRF(1-44)NH2 100 mcg i.v.",3.16 ± 2.76 ng/mL
same,plasma GH,"[2]; CONTROL (males), 45 min after GRF(1-44)NH2 100 mcg i.v.",5.17 ± 3.46 ng/mL
same,plasma GH,"[2]; CONTROL (males), 60 min after GRF(1-44)NH2 100 mcg i.v.",3.17 ± 2.61 ng/mL
same,plasma GH,"[2]; CONTROL (males), 90 min after GRF(1-44)NH2 100 mcg i.v.",1.88 ± 1.87 ng/mL
same,plasma GH,"[2]; CONTROL (males), 120 min after GRF(1-44)NH2 100 mcg i.v.",0.91 ± 0.87 ng/mL
same,delay of GH response relative to the small peak in control subjects,[2]; EOSDAT,about 15 minutes
same,plasma GH,"[2]; EOSDAT (females), 0 min (basal, before GRF(1-44)NH2 100 mcg i.v.)",1.92 ± 1.52 ng/mL
same,plasma GH,"[2]; EOSDAT (females), 15 min after GRF(1-44)NH2 100 mcg i.v.",2.23 ± 1.90 ng/mL
same,plasma GH,"[2]; EOSDAT (females), 30 min after GRF(1-44)NH2 100 mcg i.v.",6.26 ± 2.05 ng/mL
same,plasma GH,"[2]; EOSDAT (females), 45 min after GRF(1-44)NH2 100 mcg i.v.",14.86 ± 3.57 ng/mL
same,plasma GH,"[2]; EOSDAT (females), 60 min after GRF(1-44)NH2 100 mcg i.v.",19.74 ± 4.86 ng/mL
same,plasma GH,"[2]; EOSDAT (females), 90 min after GRF(1-44)NH2 100 mcg i.v.",11.28 ± 5.72 ng/mL
same,plasma GH,"[2]; EOSDAT (females), 120 min after GRF(1-44)NH2 100 mcg i.v.",5.09 ± 3.01 ng/mL
same,plasma GH,"[2]; EOSDAT (males), 0 min (basal, before GRF(1-44)NH2 100 mcg i.v.)",1.99 ± 1.67 ng/mL
same,plasma GH,"[2]; EOSDAT (males), 15 min after GRF(1-44)NH2 100 mcg i.v.",2.70 ± 1.92 ng/mL
same,plasma GH,"[2]; EOSDAT (males), 30 min after GRF(1-44)NH2 100 mcg i.v.",5.49 ± 1.91 ng/mL
same,plasma GH,"[2]; EOSDAT (males), 45 min after GRF(1-44)NH2 100 mcg i.v.",6.87 ± 2.84 ng/mL
same,plasma GH,"[2]; EOSDAT (males), 60 min after GRF(1-44)NH2 100 mcg i.v.",11.52 ± 2.82 ng/mL
same,plasma GH,"[2]; EOSDAT (males), 90 min after GRF(1-44)NH2 100 mcg i.v.",7.41 ng/mL
same,plasma GH,"[2]; EOSDAT (males), 120 min after GRF(1-44)NH2 100 mcg i.v.",2.73 ± 1.71 ng/mL
same,rise of plasma GH levels after GRF injection,[2]; EOSDAT females,19.74 ± 4.86 ng·mL
same,rise of plasma GH levels after GRF injection,[2]; EOSDAT males,11.52 ± 2.82 ng/mL
same,"rise of plasma GH levels after GRF injection, individual range",[2]; EOSDAT responders,5.5 to 28.75 ng/mL
same,maximum peak of plasma GH,"[2]; EOSDAT, 60 minutes after GRF(1-44)NH2 100 mcg i.v. bolus",15.61 ± 5.71 ng/mL
same,plasma GH,"[2]; LOSDAT (females), 0 min (basal, before GRF(1-44)NH2 100 mcg i.v.)",1.09 ± 1.01 ng/mL
same,plasma GH,"[2]; LOSDAT (females), 15 min after GRF(1-44)NH2 100 mcg i.v.",2.04 ± 1.01 ng/mL
same,plasma GH,"[2]; LOSDAT (females), 30 min after GRF(1-44)NH2 100 mcg i.v.",3.65 ± 2.35 ng/mL
same,plasma GH,"[2]; LOSDAT (females), 45 min after GRF(1-44)NH2 100 mcg i.v.",4.68 ± 3.18 ng/mL
same,plasma GH,"[2]; LOSDAT (females), 60 min after GRF(1-44)NH2 100 mcg i.v.",4.97 ± 3.86 ng/mL
same,plasma GH,"[2]; LOSDAT (females), 90 min after GRF(1-44)NH2 100 mcg i.v.",4.04 ± 3.22 ng/mL
same,plasma GH,"[2]; LOSDAT (females), 120 min after GRF(1-44)NH2 100 mcg i.v.",2.44 ± 2.05 ng/mL
same,plasma GH,"[2]; LOSDAT (males), 0 min (basal, before GRF(1-44)NH2 100 mcg i.v.)",0.95 ± 0.98 ng/mL
same,plasma GH,"[2]; LOSDAT (males), 15 min after GRF(1-44)NH2 100 mcg i.v.",2.13 ± 0.94 ng/mL
same,plasma GH,"[2]; LOSDAT (males), 30 min after GRF(1-44)NH2 100 mcg i.v.",2.81 ± 1.90 ng/mL
same,plasma GH,"[2]; LOSDAT (males), 45 min after GRF(1-44)NH2 100 mcg i.v.",3.61 ± 3.51 ng/mL
same,plasma GH,"[2]; LOSDAT (males), 60 min after GRF(1-44)NH2 100 mcg i.v.",4.09 ± 2.56 ng/mL
same,plasma GH,"[2]; LOSDAT (males), 90 min after GRF(1-44)NH2 100 mcg i.v.",3.08 ± 2.22 ng/mL
same,plasma GH,"[2]; LOSDAT (males), 120 min after GRF(1-44)NH2 100 mcg i.v.",1.64 ± 0.82 ng/mL
same,GRF-induced GH response,[2]; LOSDAT,absent
same,GRF-induced GH response,[2]; control subjects,absent
same,"locomotor activity (LA), maze paradigm",[3],90.2±8.4 pm
